Data reported in PubChem BioAssay AID330 (DTP/NCI, 2004).
Values joined by “and” are separate entries in the source; they are usually repeats but may differ in a detail not shown here. Equal entries are not always repeated. Inconclusive results and toxic doses are left out.

System: P388 leukemia ip, CD2F1 mice, survival T/C
Test: NCI In Vivo Anticancer Drug Screen. Data for tumor model P388 Leukemia (intraperitoneal) in CD2F1 (CDF1) mice
Details: endpoint: median survival time, higher = longer survival
In short: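 Mice carrying the transplanted tumor received test compound or vehicle. Survival was recorded in each group, and the value is the treated-group measurement divided by that of the vehicle-treated control group.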

[1] = dose: 25.0 mg/kg/injection, schedule: Q01DX005 (ip), vehicle: Klucel (hydroxypropylcellulose) (HPC)
[2] = dose: 100.0 mg/kg/injection, schedule: Q04DX003 (ip), vehicle: Klucel (hydroxypropylcellulose) (HPC)

For `O=C(O)CCN1C(=O)CCC1=O`, the T/C (dose: 100.0 mg/kg/injection, schedule: Q04DX003 (ip), vehicle: saline with Tween-80) was 100 % of control, the T/C (dose: 200.0 mg/kg/injection, schedule: Q04DX003 (ip), vehicle: saline with Tween-80) was 95 % of control and the T/C (dose: 400.0 mg/kg/injection, schedule: Q04DX003 (ip), vehicle: saline with Tween-80) was 91 % of control.
`Cc1cc(N/N=C/c2ccccn2)nc2ccccc12` was tested, and the T/C (dose: 12.5 mg/kg/injection, schedule: Q01DX005 (ip), vehicle: Klucel (hydroxypropylcellulose) (HPC)) was 101 % of control and the T/C [1] was 112 % of control.
With `c1ccc2c(c1)[nH]c1c2nc2ccccn21` the T/C [1] was 105 % of control and 107 % of control, the T/C (dose: 50.0 mg/kg/injection, schedule: Q01DX005 (ip), vehicle: Klucel (hydroxypropylcellulose) (HPC)) was 105 % of control and 108 % of control and 113 % of control and the T/C (dose: 100.0 mg/kg/injection, schedule: Q01DX005 (ip), vehicle: Klucel (hydroxypropylcellulose) (HPC)) was 124 % of control.
With `c1ccc(CSC2=NCCN2)cc1` the T/C (dose: 12.5 mg/kg/injection, schedule: Q01DX009 (ip), vehicle: saline) was 93 % of control and the T/C (dose: 50.0 mg/kg/injection, schedule: Q01DX009 (ip), vehicle: saline) was 91 % of control.
For `CCOC(=O)C1CSC2(CCCC2)N1` (stereo unspecified), the T/C (dose: 100.0 mg/kg/injection, schedule: Q04DX002 (ip), vehicle: saline with Tween-80) was 110 % of control, the T/C (dose: 200.0 mg/kg/injection, schedule: Q04DX002 (ip), vehicle: saline with Tween-80) was 109 % of control and the T/C (dose: 400.0 mg/kg/injection, schedule: Q04DX002 (ip), vehicle: saline with Tween-80) was 100 % of control.
With `NC(Cc1c(Br)[nH]c2ccccc12)C(=O)O` (stereo unspecified) the T/C (dose: 50.0 mg/kg/injection, schedule: Q01DX005 (ip), vehicle: saline with Tween-80) was 98 % of control, the T/C (dose: 100.0 mg/kg/injection, schedule: Q01DX005 (ip), vehicle: saline with Tween-80) was 103 % of control and the T/C (dose: 200.0 mg/kg/injection, schedule: Q01DX005 (ip), vehicle: saline with Tween-80) was 104 % of control.
With `CCOP(O)(=S)OCC.[Yb]` the T/C [2] was 96 % of control, the T/C (dose: 200.0 mg/kg/injection, schedule: Q04DX003 (ip), vehicle: Klucel (hydroxypropylcellulose) (HPC)) was 99 % of control and the T/C (dose: 400.0 mg/kg/injection, schedule: Q04DX003 (ip), vehicle: Klucel (hydroxypropylcellulose) (HPC)) was 90 % of control.
`Cc1ccc(N2N=NC3C4CCC(C)(C4(C)C)C32O)cc1` (stereo unspecified) was tested, and the T/C (dose: 50.0 mg/kg/injection, schedule: Q04DX002 (ip), vehicle: other) was 92 % of control, the T/C (dose: 100.0 mg/kg/injection, schedule: Q04DX002 (ip), vehicle: other) was 98 % of control and the T/C (dose: 200.0 mg/kg/injection, schedule: Q04DX002 (ip), vehicle: other) was 93 % of control.
In the case of `COC(=O)C(F)C(Br)C(=O)OC` (stereo unspecified), the T/C (dose: 12.5 mg/kg/injection, schedule: Q01DX009 (ip), vehicle: saline with Tween-80) is reported as 111 % of control and 103 % of control, the T/C (dose: 25.0 mg/kg/injection, schedule: Q01DX009 (ip), vehicle: saline with Tween-80) is reported as 112 % of control and 105 % of control and the T/C (dose: 50.0 mg/kg/injection, schedule: Q01DX009 (ip), vehicle: saline with Tween-80) is reported as 123 % of control and 114 % of control and 115 % of control.
For `CC1=C(C)C(=Nc2ccc(N(CCCl)CCCl)cc2)C=CC1=O`, the T/C (dose: 50.0 mg/kg/injection, schedule: Q01DX001 (ip), vehicle: Klucel (hydroxypropylcellulose) (HPC)) was 97 % of control, the T/C (dose: 100.0 mg/kg/injection, schedule: Q01DX001 (ip), vehicle: Klucel (hydroxypropylcellulose) (HPC)) was 100 % of control and the T/C (dose: 200.0 mg/kg/injection, schedule: Q01DX001 (ip), vehicle: Klucel (hydroxypropylcellulose) (HPC)) was 114 % of control.
With `CCN(Cc1ccccc1)C(=O)Nc1c(Cl)cccc1Cl` the T/C (dose: 60.0 mg/kg/injection, schedule: Q01DX005 (ip), vehicle: saline with Tween-80) was 92 % of control, the T/C (dose: 120.0 mg/kg/injection, schedule: Q01DX005 (ip), vehicle: saline with Tween-80) was 95 % of control and the T/C (dose: 240.0 mg/kg/injection, schedule: Q01DX005 (ip), vehicle: saline with Tween-80) was 86 % of control.
`CNCc1cccc2ccnc(C)c12` was tested, and the T/C (dose: 100.0 mg/kg/injection, schedule: Q01DX001 (ip), vehicle: saline with Tween-80) was 100 % of control, the T/C (dose: 200.0 mg/kg/injection, schedule: Q01DX001 (ip), vehicle: saline with Tween-80) was 99 % of control and the T/C (dose: 400.0 mg/kg/injection, schedule: Q01DX001 (ip), vehicle: saline with Tween-80) was 96 % of control.
In the case of `O=c1oc2ccccc2c(O)c1C(c1ccc2c(c1)OCO2)c1c(O)c2ccccc2oc1=O`, the T/C (dose: 15.0 mg/kg/injection, schedule: Q01DX005 (ip), vehicle: saline with Tween-80) is reported as 98 % of control and the T/C (dose: 30.0 mg/kg/injection, schedule: Q01DX005 (ip), vehicle: saline with Tween-80) is reported as 96 % of control.
For `Cc1cc(C(C(N)=O)c2ccccc2)ccc1N(CCCl)CCCl` (stereo unspecified), the T/C (dose: 9.37 mg/kg/injection, schedule: Q01DX009 (ip), vehicle: other) was 168 % of control, the T/C (dose: 18.75 mg/kg/injection, schedule: Q01DX009 (ip), vehicle: other) was 195 % of control and the T/C (dose: 25.0 mg/kg/injection, schedule: Q04DX003 (ip), vehicle: Klucel (hydroxypropylcellulose) (HPC)) was 184 % of control. The T/C (dose: 50.0 mg/kg/injection, schedule: Q04DX003 (ip), vehicle: Klucel (hydroxypropylcellulose) (HPC)) was 176 % of control and the T/C [2] was 97 % of control.
